Measurements published in PubChem BioAssay (NCI).
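Grown in 96-well plates, cells were treated for 48 hours with each compound at five concentrations. Insufficient inhibition: endpoint recorded as highest concentration tested. GI50 = concentration required for 50% inhibition of growth. TGI marks complete inhibition of growth.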

Columns and labels:
Assay in all cases: NCI anticancer screen, dose series, 48 h
[1] = tested on: A498 renal
[2] = tested on: CAKI-1 renal
[3] = tested on: KM12 colon
[4] = tested on: MALME-3M melanoma
[5] = tested on: MOLT-4 leukemia
[6] = tested on: NCI-H226 lung
[7] = tested on: NCI-H23 lung
[8] = tested on: OVCAR-5 ovarian
[9] = tested on: T-47D breast
[10] = tested on: UO-31 renal

Row | Compound | GI50 [1] [µM] | TGI [1] [µM] | GI50 [2] [µM] | TGI [2] [µM] | GI50 [3] [µM] | TGI [3] [µM] | GI50 [4] [µM] | TGI [4] [µM] | GI50 [5] [µM] | TGI [5] [µM] | GI50 [6] [µM] | TGI [6] [µM] | GI50 [7] [µM] | TGI [7] [µM] | GI50 [8] [µM] | TGI [8] [µM] | GI50 [9] [µM] | TGI [9] [µM] | GI50 [10] [µM] | TGI [10] [µM]
1 | O=C1c2c(c3c4ccccc4n(CCCCCCBr)c3c3[nH]c4ccccc4c23)C(=O)N1O | 2.89 | 9.14 | 2.86 | 9.5 | 2.59 | 10.4 | 2.65 | 7.74 | 1.94 | 5.68 | 3.7 | 16.4 | 2.23 | 7.09 | 3.22 | 17.4 | 1.74 | 7.44 | 2.11 | 10.1
2 | CN(C)CCC(=O)N1C/C(=C/c2ccccc2)C(=O)/C(=C\c2ccccc2)C1 |  | 6.75 |  | 7.02 |  | 1.73 |  | 5.9 |  | 1.46 |  | 12.6 |  | 6.76 |  | 6.66 |  | 17.7 |  | 5.21
3 | COc1cccc(/C=N/NC(=O)c2ccccc2Nc2ccnc(C(F)(F)F)c2)c1O | 5.11 | > 42.8 | 0.257 | 9.72 | 0.457 | > 56.4 | 0.964 | 33.6 | 0.196 | 1.19 | 0.571 | 36.5 | 0.904 | 46.9 | 0.701 | 98.3 | 0.498 | 38.8 | 0.303 | 
4 | O=NN(Cc1ccc(Cl)cc1)C(C(=O)O)c1ccccc1 (centres undefined) |  | > 100 |  | > 100 |  | > 100 |  | > 100 |  | > 100 |  | > 100 |  | > 100 |  | > 100 |  | > 100 |  | > 100
